Laboratory results from PMC5078989, “Targeted inhibition of the COP9 signalosome for treatment of cancer” (Nature Communications, 2016).

Key:
human MMP14 = biological target: T1, human MMP14 (Homo sapiens, UniProt P50281); assay: Selectivity assay MMP14; type: biochemical
T1 construct: human MMP14 (Uniprot P50281), amino acids 112–284; made in house; host or cells: E. coli
Description: (§1) All biochemical assays were performed at room temperature in 384-well plates in a total volume of 25.25 μl per well. Test compounds were dissolved in 90% (v/v) DMSO/water. For the assays, 250 nl of compound solution was added per well, followed by addition of 12.5 μl protease solution. After 70 min of pre-incubation at room temperature, the reactions were started by addition of 12.5 μl substrate solution and followed either by measuring fluorescence intensity (rhodamine 110-based substrates) or by fluorescence lifetime (PT14-based substrates). The effect of compound on enzymatic activity was obtained from the linear part of the progress curves and determined after 1 h (t=60 min). The final compound concentrations ranged from 100 μM to 1 nM.
(§2) Matrix metalloproteinases. Human MMP1 (Uniprot P03956), amino acids 1–469, expressed in and purified from stable transfected C127 cells; human MMP2 (Uniprot P08253), amino acids 1–660, expressed in and purified from insect cells (baculovirus expression system); human MMP8 (Uniprot P22894), amino acids 100–262, expressed in and purified from E. coli; human MMP9 (Uniprot P14780), amino acids 1–707, expressed in and purified from stable transfected 293 cells; human MMP12 (Uniprot P39900), amino acids 101–268, expressed in and purified from E. coli; human MMP13 (Uniprot P45452), amino acids 103–274, expressed in and purified from E. coli; human MMP14 (Uniprot P50281), amino acids 112–284, expressed in and purified from E. coli; human ADAM17 (Uniprot P78536), amino acids 1–670, expressed in and purified from insect cells (baculovirus expression system); substrate: Ac-C(PT14)-[…]-NH2 purchased from Biosyntan (product number 8069); enzyme concentrations: 3 nM (MMP1), 1 nM (MMP2), 3 nM (MMP8), 0.1 nM (MMP9), 0.5 nM (MMP12), 0.13 nM (MMP13), 0.005 nM (MMP14), 30 nM (ADAM17); substrate concentration: 0.8 μM; assay buffer: 100 mM Tris, pH 7.4, 100 mM NaCl, 10 mM CaCl2, 10 μM ZnCl2, 0.075% (v/v) Brij35.

CSN5 = biological target: T2, CSN5 (Homo sapiens, UniProt Q92905); assay: CSN5 activity assay (CSN deneddylation, fluorescence polarization); type: biochemical; conditions: JAMM domain protease; means±s.d.
T2 construct: made in house; host or cells: Sf21 insect cells, co-infection of separate baculoviruses
Description: Unlike the majority of proteases, it is not active as an individual subunit or as an isolated catalytic domain. […] For the identification of CSN inhibitors, we therefore conducted a high-throughput screening campaign using a biochemical assay with recombinant CSN and a fluorescence-labelled and NEDD8-modified CRL substrate[30][40] (PT22-NEDD8-SCF^Skp2; Supplementary Table 1).
The potency of CSN5 inhibitors was determined in a CSN activity assay using changes in fluorescence polarization as the readout. Reactions were carried out at room temperature in 384-well plates. […] The effect of compound on enzymatic activity was determined from the linear part of the progression curves by an end-point measurement of the fluorescence polarization at 590 nm after excitation at 540 nm using a PHERAstar plate reader (BMG LABTECH GmbH). IC50 values were calculated from the plot of percentage of inhibition versus inhibitor concentration using the non-linear regression analysis software Origin 7.5SR6 (OriginLab Corp.).

CYP3A4 = CYP3A4 (Homo sapiens, UniProt P08684); assay: CYP3A4 inhibition; type: in vitro ADME
Chain of CYP3A4 (P08684 whole entry, species assumed): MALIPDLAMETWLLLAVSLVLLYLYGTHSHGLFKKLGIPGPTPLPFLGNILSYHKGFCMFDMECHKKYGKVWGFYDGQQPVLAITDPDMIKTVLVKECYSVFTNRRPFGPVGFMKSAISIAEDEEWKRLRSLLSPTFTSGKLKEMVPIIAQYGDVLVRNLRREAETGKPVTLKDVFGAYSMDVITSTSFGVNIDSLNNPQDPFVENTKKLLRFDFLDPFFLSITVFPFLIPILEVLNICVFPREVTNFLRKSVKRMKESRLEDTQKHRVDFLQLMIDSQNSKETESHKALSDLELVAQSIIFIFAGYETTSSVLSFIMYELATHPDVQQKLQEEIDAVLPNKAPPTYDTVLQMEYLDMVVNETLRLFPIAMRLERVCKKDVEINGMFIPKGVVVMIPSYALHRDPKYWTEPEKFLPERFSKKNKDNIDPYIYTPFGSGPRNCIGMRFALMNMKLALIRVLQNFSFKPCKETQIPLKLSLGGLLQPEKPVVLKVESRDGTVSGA
From the text: Table 2 CYP3A4 inhibition and key pharmacokinetic parameters in mice of CSN5 inhibitors. | column: CSN5i-2; CSN5i-3

[1] = Pharmacokinetics in mice (single i.v. and oral dose); conditions: mouse, in vivo, mice (n=3), single i.v. 1 mg per kg and single oral 3 mg per kg dose; for clearance: read-out: Cl (clearance); for bioavailability: read-out: F (absolute bioavailability); for half-life: read-out: t1/2 (half-life)
human MMP2 = biological target: T3, human MMP2 (Homo sapiens, UniProt P08253); assay: Selectivity assay MMP2; type: biochemical
T3 construct: human MMP2 (Uniprot P08253), amino acids 1–660; made in house; host or cells: insect cells (baculovirus)
T3 sequence (P08253 30-660): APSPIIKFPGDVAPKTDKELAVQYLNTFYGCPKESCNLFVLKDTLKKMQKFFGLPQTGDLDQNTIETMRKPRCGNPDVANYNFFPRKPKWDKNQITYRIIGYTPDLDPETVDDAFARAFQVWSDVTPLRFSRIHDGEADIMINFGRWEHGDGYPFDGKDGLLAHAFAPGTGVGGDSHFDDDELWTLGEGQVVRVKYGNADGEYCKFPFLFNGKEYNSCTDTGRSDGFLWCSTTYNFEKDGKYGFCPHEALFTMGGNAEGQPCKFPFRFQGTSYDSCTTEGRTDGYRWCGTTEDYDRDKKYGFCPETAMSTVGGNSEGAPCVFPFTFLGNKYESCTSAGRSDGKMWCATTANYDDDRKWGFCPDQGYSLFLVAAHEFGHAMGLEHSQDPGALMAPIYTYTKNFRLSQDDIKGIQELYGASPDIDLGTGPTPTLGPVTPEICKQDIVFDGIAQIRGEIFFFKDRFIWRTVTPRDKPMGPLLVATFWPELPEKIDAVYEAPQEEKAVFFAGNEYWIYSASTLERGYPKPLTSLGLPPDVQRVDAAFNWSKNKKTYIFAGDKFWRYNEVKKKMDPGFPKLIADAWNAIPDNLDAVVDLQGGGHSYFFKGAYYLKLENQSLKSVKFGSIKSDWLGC
Description: as §1, §2

human MMP13 = biological target: T4, human MMP13 (Homo sapiens, UniProt P45452); assay: Selectivity assay MMP13; type: biochemical
T4 construct: human MMP13 (Uniprot P45452), amino acids 103–274; made in house; host or cells: E. coli
Description: as §1, §2

| IC50 (human MMP14) [µM] | IC50 (CSN5) [µM] | IC50 (human MMP2) [µM] | IC50 (human MMP13) [µM] | SMILES | IC50 (CYP3A4) [µM] | clearance [1] [mL/min/kg] | bioavailability [1] [%] | half-life [1] [h] |
| --- | --- | --- | --- | --- | --- | --- | --- | --- |
| 15.4 ± 0.02 | 0.002 ± 0.001 | 89 ± 3 | > 100 | COCc1ccccc1NCc1ccc([C@H]2[C@@H](O)CCCc3cncn32)c(-c2ccccc2Cl)c1 [CSN5i-2, (5S,6S)-5-(2′-chloro-5-(((2-(methoxymethyl)phenyl)amino)methyl)-[1,1′-biphenyl]-2-yl)-6,7,8,9-tetrahydro-5H-imidazo[1,5-a]azepin-6-ol] | < 0.5 | 82 ± 25 | < 1 | 0.6 ± 0.0167 |
| 11 ± 1 | 2.1 ± 1.8 | ≥ 90 | > 100 | COCc1ccccc1NCc1ccc([C@@H]2[C@H](O)CCCc3cncn32)c(-c2ccccc2Cl)c1 [CSN5i-2e, (5R,6R)-5-(2′-chloro-5-(((2-(methoxymethyl)phenyl)amino)methyl)-[1,1′-biphenyl]-2-yl)-6,7,8,9-tetrahydro-5H-imidazo[1,5-a]azepin-6-ol] | – | – | – | – |

| SMILES | IC50 (human MMP14) [µM] | IC50 (CSN5) [µM] | IC50 (human MMP2) [µM] | IC50 (human MMP13) [µM] | IC50 (CYP3A4) [µM] | clearance [1] [mL/min/kg] | bioavailability [1] [%] | half-life [1] [h] |
| --- | --- | --- | --- | --- | --- | --- | --- | --- |
| CC(C)n1nc(C(F)F)cc1C(=O)Nc1ccc([C@H]2[C@@H](O)CCCc3cncn32)c(-c2ccccc2)c1 [CSN5i-3, 3-(Difluoromethyl)-N-(6-((5S,6S)-6-hydroxy-6,7,8,9-tetrahydro-5H-imidazo[1,5-a]azepin-5-yl)-[1,1′-biphenyl]-3-yl)-1-isopropyl-1H-pyrazole-5-carboxamide] | 4.6 ± 0.5 | – | > 100 | > 100 | 6.8 ± 1.8 | 36 ± 3 | 33 ± 2 | 2.5 ± 0.3 |
